No end group written: not given here.
Test system: Autologous DCs pulsed with the IsoMSLN peptide
Assay: DC-T-cell co-culture immunogenicity, 4-hour Calcein-AM-release cytotoxicity assay
Assay type: cell-based
Details: E/T ratio 10:1 and 5:1; peripheral blood mononuclear cells of a healthy individual; control unrelated HIV peptide; FIG. 5
Method: The peptide unique to the isoform variant (i.e., PQAPRRPL (SEQ ID NO: 19)) was then tested for immunogenicity using a dendritic cell (DC)- T-cell co-culture system as previously described (Chiriva-Internati et al. Blood. 2002 Aug. 1;100(3):961-5). A standard 4-hour Calcein-AM-release assay was performed to determine the cytotoxic activity of the IsoMSLN peptide stimulated T cells. Autologous DCs pulsed with the IsoMSLN peptide or with an unrelated peptide (derived from HIV), were used as target cells (at an effector-target cell [E/T] ratio of 10:1 and 5:1).

PQAPRRPL [PQAPRRPL]
immunogenicity (cytotoxic activity of peptide stimulated T cells, percent specific killing): immunogenic

Reference: US20220310200A1, “METHODS FOR IDENTIFYING AND USING DISEASE-ASSOCIATED ANTIGENS” (KIROMIC BIOPHARMA, INC., priority 2019, published 2022)
